# Patent publication US20080039513A1, “Marine Compounds with Calcium Channel Blocking Properties for the Treatment of Cognitive or Neurodegenerative Diseases” (priority 2004, published 2008)
# Like-named read-outs stand apart in the source and are kept apart here.
# What was measured:
# VDCC = VDCC blockade: intracellular Ca2+ (Fluo-4) in SH-SY5Y cells on depolarization with 60 mM KCl; format: cell-based, human
# Protocol: SH-SY5Y cells were plated at 5×10^5 cells per well into Black/Clear Bottom 96-well culture plate, 48 hours before treatment. Cells were loaded with Fluo-4, 5 μM and pluronic acid, 0.1%, for 30 min at 37° C., 5% CO2, following a incubation of 15 min at RT in Krebs-HEPES solution. Immediately cells are exposed to the samples at different concentrations for 10 min. […] After the treatment, the fluorescence is measured in a Fluostar Optima plate reader (BMG) in response to depolarization with 60 mM KCl. The excitation wavelength was 485 nm, and that of emission 520 nm. […] Three compounds isolated from this extract have shown calcium channel blocking properties in SH-SY5Y neuroblastoma cells.
# [1] = target: T1, AChE (from bovine erythrocytes) (Bos taurus, UniProt P23795); assay: AChE inhibition (Ellman colorimetric method); format: biochemical; details: read-out: % inhibition AChE (concentration); for inhibition at 30 µM: 3 × 10^−5 M
# T1 construct: AChE (Sigma Chemical Co. from bovine erythrocytes); purchased Sigma Chemical Co; host or cells: bovine erythrocytes
# T1 sequence (P23795 31-614 isoform P23795-2 limits assumed): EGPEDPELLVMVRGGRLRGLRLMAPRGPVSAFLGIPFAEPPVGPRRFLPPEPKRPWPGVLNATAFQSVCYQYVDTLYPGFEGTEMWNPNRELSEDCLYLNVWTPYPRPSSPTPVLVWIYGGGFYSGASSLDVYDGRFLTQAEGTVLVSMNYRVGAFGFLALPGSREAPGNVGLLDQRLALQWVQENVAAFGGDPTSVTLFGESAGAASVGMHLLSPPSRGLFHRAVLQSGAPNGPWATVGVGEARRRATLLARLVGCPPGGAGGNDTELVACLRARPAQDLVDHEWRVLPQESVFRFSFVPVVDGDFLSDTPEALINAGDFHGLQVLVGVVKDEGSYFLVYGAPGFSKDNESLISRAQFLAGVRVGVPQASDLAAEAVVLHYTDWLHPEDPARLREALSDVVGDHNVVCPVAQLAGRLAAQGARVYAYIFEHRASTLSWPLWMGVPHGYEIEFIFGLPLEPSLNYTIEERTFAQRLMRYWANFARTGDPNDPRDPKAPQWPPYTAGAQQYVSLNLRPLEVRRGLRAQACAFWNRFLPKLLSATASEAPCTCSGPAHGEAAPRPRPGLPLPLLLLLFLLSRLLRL
# Protocol: AChE inhibitory activity was evaluated at 30° C. by the colorimetric method reported by Ellman (Ellman, G. L. et al., 1961, Biochem Pharmacol, 7, 88-95). The assay solution consisted of 0.1 M phosphate buffer pH 8, 0.3 mM 5,5′-dithiobis (2-nitrobenzoic acid) (DTNB, Ellman's reagent), 0.02 units AChE (Sigma Chemical Co. from bovine erythrocytes), and 0.5 mM acetylthiocholine iodide as the substrate of the enzymatic reaction. The compounds tested were added to the assay solution and pre incubated with the enzyme for 5 min at 30° C. After that period, the substrate was added. The absorbance changes at 405 nm were recorded for 5 min with a microplate reader Digiscan 340T, the reaction rates were compared, and the percent inhibition due to the presence of test compounds was calculated. The reaction rate was calculated with, at least, triplicate measurements, and the percent inhibition due to the presence of test compound was calculated relative to the compound-free control.
# BuChE from human serum = target: T2, BuChE from human serum (Homo sapiens, UniProt P06276); assay: BuChE inhibition (Ellman colorimetric method); format: biochemical
# T2 construct: 0.01 units BuChE from human serum; from tissue; host or cells: human serum
# Protocol: BuChE inhibitory activity was evaluated at 30° C. by the colorimetric method reported by Ellman (Ellman, G. L. et al., 1961, Biochem Pharmacol, 7, 88-95). The assay solution consisted of 0.01 units BuChE from human serum, 0.1 M sodium phosphate buffer pH 8, 0.3 mM 5,5′-dithiobis (2-nitrobenzoic acid) (DTNB, Ellman's reagent), and 0.5 mM butyrylthiocholine iodide as the substrate of the enzymatic reaction. Enzyme activity was determined by measuring the absorbance at 405 nm during 5 minutes with a microplate reader Digiscan 340T. The tested compounds were preincubated with the enzyme for 10 minutes at 30° C. The reaction rate was calculated with, at least, triplicate measurements.
# [2] = test system: human neuroblastoma cell line SH-SY5Y; format: cell-based; details: for Toxicity (in words): at 10 μM
# Protocol: The cytotoxicity effect of the molecules was tested in the human neuroblastoma cell line SH-SY5Y. These cells were cultured in 96-well plates in minimum essential medium, Ham's F12 medium, supplemented with 10% fetal bovine serum, 1% glutamine and 1% penicillin/streptomycin, and grown in a 5% CO2 humidified incubator at 37° C. Cells were plated at 10^4 cells for each well, at least, 48 hours before treatment. Cells were exposed for 24 hours to the compounds at different concentrations (from 10^−5 to 10^−9), quantitative assessment of cell death was made by measurement of the intracellular enzyme lactate dehydrogenase (LDH) (citotoxicity detection kit, Roche). The quantity of LDH was measured was evaluated in a microplate reader Anthos 2010, at 492 and 620 nm. Controls were taken as 100% viability.
# AChE peripheral site = target: T3, AChE peripheral site (Bos taurus, UniProt P23795); assay: Propidium competition (fluorescence); format: binding; details: 30 μM compound; 5 μM AChE, 20 μM propidium iodide
# T3 sequence (P23795 31-613): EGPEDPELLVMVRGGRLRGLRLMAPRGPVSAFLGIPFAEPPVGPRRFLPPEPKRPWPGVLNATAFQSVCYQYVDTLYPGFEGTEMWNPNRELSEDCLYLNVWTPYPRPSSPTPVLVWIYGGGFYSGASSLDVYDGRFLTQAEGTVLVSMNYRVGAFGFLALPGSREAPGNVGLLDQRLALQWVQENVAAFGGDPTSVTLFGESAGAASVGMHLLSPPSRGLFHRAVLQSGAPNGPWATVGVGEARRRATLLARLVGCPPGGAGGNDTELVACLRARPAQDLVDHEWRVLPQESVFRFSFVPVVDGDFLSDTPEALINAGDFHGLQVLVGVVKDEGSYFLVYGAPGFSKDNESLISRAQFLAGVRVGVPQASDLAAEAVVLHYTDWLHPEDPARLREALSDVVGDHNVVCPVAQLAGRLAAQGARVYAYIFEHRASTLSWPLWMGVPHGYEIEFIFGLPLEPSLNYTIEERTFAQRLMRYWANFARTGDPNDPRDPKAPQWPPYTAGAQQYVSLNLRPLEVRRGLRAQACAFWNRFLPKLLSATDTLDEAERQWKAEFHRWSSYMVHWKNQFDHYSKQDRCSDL
# Protocol: Fluorescence was measured in a Fluostar Optima plate reader (BMG). Measurements were carried out in 100 μl solution volume, in 96-well plates. The buffer used was 1 mM Tris/HCl, pH 8.0. 5 μM AChE was incubated, at least 6 hours, with the molecule at different concentrations. 20 μM propidium iodide was added 10 min before fluorescence measurement. The excitation wavelength was 485 mn and that of emission 620 nm.
# [3] = SH-SY5Y, 24 hours exposure, LDH
# T2 sequence (P06276 29-602): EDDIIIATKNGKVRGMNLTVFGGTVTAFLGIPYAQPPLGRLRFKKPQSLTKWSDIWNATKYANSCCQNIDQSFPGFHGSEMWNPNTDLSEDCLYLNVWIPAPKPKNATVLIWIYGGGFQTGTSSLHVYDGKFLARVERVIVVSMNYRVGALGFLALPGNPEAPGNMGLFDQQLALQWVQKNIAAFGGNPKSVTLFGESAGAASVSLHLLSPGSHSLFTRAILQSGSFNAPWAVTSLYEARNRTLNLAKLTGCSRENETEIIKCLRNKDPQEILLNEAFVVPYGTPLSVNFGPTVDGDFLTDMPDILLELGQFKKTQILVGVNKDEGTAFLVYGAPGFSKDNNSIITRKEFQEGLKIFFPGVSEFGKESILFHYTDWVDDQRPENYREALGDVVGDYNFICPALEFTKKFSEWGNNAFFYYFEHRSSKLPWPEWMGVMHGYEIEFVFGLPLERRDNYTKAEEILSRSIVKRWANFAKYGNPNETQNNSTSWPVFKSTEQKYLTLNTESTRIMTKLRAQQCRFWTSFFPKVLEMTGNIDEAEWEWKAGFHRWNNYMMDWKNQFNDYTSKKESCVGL
SMILES,inhibition at 30 µM [1] [%],inhibition at 30 µM (BuChE from human serum) [%],"Toxicity [2, 3] [µM]",% inhibition VDCC (concentration) (VDCC; 1.8 × 10^−5 M) [%],% inhibition VDCC (concentration) (VDCC; 10^−5 M) [%],"Toxicity (in words) [2, 3]",other results
"COC1=C(Br)[C@@H]2OC(=O)C[C@]2(O)C=C1Br [Compound 1, Aeroplysinin-2]",7 ± 1,0,0.6,–,–,–,% inhibition VDCC (concentration) (VDCC; concentration not given): 0%
"COC1=C(Br)[C@H](O)[C@](O)(CC#N)C=C1Br [Compound 2, Aeroplysinin-1]",19 ± 3,0,6,–,–,–,% inhibition VDCC (concentration) (VDCC; concentration not given): 0%
"COC1=C(Br)[C@H](O)[C@@]2(C=C1Br)CC(C(=O)NCCCCNC(=O)C1=NO[C@]3(C=C(Br)C(OC)=C(Br)[C@@H]3O)C1)=NO2 [Compound 3, Aerothionin]",12 ± 1,13 ± 1,–,75 ± 17,–,–,"Toxicity ([2]; human, 24 h): 18 µM"
"COC1=C(Br)[C@H](O)[C@@]2(C=C1Br)CC(C(=O)NCCCCCNC(=O)C1=NO[C@]3(C=C(Br)C(OC)=C(Br)[C@@H]3O)C1)=NO2 [Compound 4, Homoaerothionin]",9 ± 4,10 ± 1,6,95 ± 4,–,–,Propidium competition (30 μM) (AChE peripheral site): YES
"COC1=C(Br)[C@@H](O)[C@]2(C=C1Br)CC(C(=O)NCCc1cc(Br)c(OCCCNC(=O)C3=NO[C@]4(C=C(Br)C(OC)=C(Br)[C@@H]4O)C3)c(Br)c1)=NO2 [Compound 5, 11,19-dideoxyfistularin]",63 ± 3,57 ± 7,>100,34 ± 14,–,–,Propidium competition (30 μM) (AChE peripheral site): YES
COC1=C(Br)[C@@H](O)[C@]2(C=C1Br)CC(C(=O)NCCc1cnc[nH]1)=NO2 [Compound 6],–,–,–,–,18 ± 10,Not toxic,inhibition at 100 µM ([1]; 10^−4 M): 0%
COC1=C(Br)[C@@H](O)[C@]2(C=C1Br)CC(C(=O)NCCCOc1c(Br)cc(CCN)cc1Br)=NO2 [Compound 7],–,–,–,–,67 ± 14.5,Not toxic,inhibition at 100 µM ([1]; 10^−4 M): 9.5 ± 3%; inhibition at 10 µM ([1]; 10^−5 M): 5 ± 3%
COC1=C(Br)[C@@H](O)[C@]2(C=C1Br)CC(C(=O)NCCCOc1c(Br)cc(C/C(=N\O)C(=O)NCCc3cnc[nH]3)cc1Br)=NO2 [Compound 8],–,–,–,–,96 ± 3,Not toxic,% inhibition VDCC (concentration) (VDCC; 10^−6 M): 48%; % inhibition VDCC (concentration) (VDCC; 10^−7 M): 9%; inhibition at 100 µM [1]: 0%
